Assay results taken from PMC11064505, “A nanochitosan-D-galactose formulation increases the accumulation of primaquine in the liver” (Antimicrobial Agents and Chemotherapy, 2024).

Experiments:
[1] = in vivo; details: mouse
Method: All formulations were given by gavage with a final volume of 200 µL. At different intervals (0.5, 1, 2, 4, 8, and 24 hours), animals were subjected to anesthesia with a mixture of xylazine (10 mg/kg) and ketamine (100 mg/kg). Blood was collected by cardiac puncture, plasma was separated by centrifugation, RBCs were washed three times in saline, and plasma and RBC were stored at −20°C. After the animal was exsanguinated, the liver, lungs, and spleen were collected and frozen in liquid nitrogen until processed for primaquine quantification.
The extraction procedure was based on Carmo et al. ([22]) and Joshi and Devarajan ([23]). Briefly, 100 µL or 100 mg of the sample was transferred to a 1.5 mL microtube. Then, 100 µL of 2% acetic acid-acidified acetonitrile and 100 µL of ultrapure water were added. Next, the samples were homogenized for 1 minute using a vortex, and 50 µL of 12.5% zinc sulfate solution was added. The samples were homogenized again for 1 minute and left to stand for 20 minutes to ensure complete protein precipitation. After this period, the samples were centrifuged at 7,500 rpm for 15 minutes at room temperature. Finally, the supernatant was collected, and 20 µL was injected into the liquid chromatograph. This process was repeated to construct the eight-point calibration curves (0.39–50 µg/mL).
The primaquine concentrations in plasma, liver, lung, and spleen samples from mice treated with free primaquine were determined using high-performance liquid chromatography with a UV detector (HPLC-UV). Method validation followed orientations of the Guidance for Bioanalytical Method Validation from the Food and Drug Administration. The method was developed using a Waters liquid chromatography system with an Alliance e2695 Separation Module, quaternary pump, autosampler, degasser, column heater, and a dual channel UV–Vis detector (Milford, USA). The Empower 3 software was used for system control, peak integration, and data analysis. The separation was performed using an XBridge C18 reverse-phase column (150 × 4.6 mm, 5 µm) and an XBridge C18 reverse-phase pre-column (20 × 4.6 mm, 5 µm). For elution and identification of the primaquine, the mobile phase (MP) consisted of (A) potassium phosphate buffer (0.02 mol/L, pH = 3) and (Bi) acetonitrile. […] The flow rate of the MP was set at 1.0 mL/min, the column oven temperature was maintained at 35°C, and the UV detector was set at 266 nm. An injection volume of 20 µL was used, and the total run time was 13 minutes.
The physicochemical analyses of the nanoparticles were performed in triplicate and are expressed as the mean value ± SD. Statistical significance tests were applied through mixed-model analysis of variance, using Prism GraphPad Software. […] Non-compartmental pharmacokinetic analysis was conducted using PK Solutions 2.0 (Summit Research Services, Ashland, USA). The area under the concentration-time curve was calculated using the trapezoidal method (AUC0-t) from time zero to the last data point and extrapolated to infinity (AUC0-∞). The maximum plasma concentration (Cmax) and the time taken to reach Cmax (Tmax) were obtained from the experimental data. The elimination rate constant (K) was determined from the slope of the regression line, allowing the calculation of the elimination half-life (t1/2β) using the formula 0.693 /K ([24]). All data were presented as mean ± SD.

[2] = set-up: method as in PMID 16140485; details: 1 hour after intravenous administration in mice; cited from earlier work
[3] = set-up: method as in PMID 16968913, PMID 30379233, PMID 35709685; details: human treatment, clinical dose; cited from earlier work

Tmax ([1]; Swiss Webster, po, 10 mg/kg): 30 min | liver/plasma ratio for the volume of distribution ([1]; Swiss Webster, po, 10 mg/kg): 0.1 | primaquine concentrations in the liver, variation among animals ([1]; Swiss Webster, po, 10 mg/kg, 30 minutes): 3.5-110 µg of drug per 100 mg of tissue | Cmax ([1]; Swiss Webster, po, 10 mg/kg, primaquine concentrations in plasma (Cmax), variation among animals): 0.4 to 2 µg/mL | Cmax of primaquine in the liver relative to the galactose-based nanoformulations [1]: about twice as much
Compound: COc1cc(NC(C)CCCN)c2ncccc2c1 (stereo not shown) [Pq, primaquine diphosphate]
uptake of the drug (recovery) in the liver [2]: 20% | Cmax in plasma [3]: around 0.1 µg/mL
